Assays:
[1] = biological target: T1, Human TRPV1 (Homo sapiens (Human), UniProt Q8NER1); experiment: pH-Based Assay (Protocol 2), Ca2+ response in TRPV1/CHO cells; assay type: cell-based; conditions: pH 5.0-5.1 (H2SO4)
Method: The TRPV1/CHO cell line was generated as described below. The following assay was conducted to determine the concentration of sulfuric acid that would give rise to a pH that induces a […] response optimal to test compounds for their effect on TRPV1. […] For one half of a 96-well plate one agonist solution was used, for the other half the other agonist solution. The agonist solutions were obtained by diluting sulfuric acid (H2SO4, 1 M) with measuring buffer. The concentrations for the two agonist solutions were determined as described above in Section 2 of Protocol 2. The sulfuric acid concentrations between the two agonist solutions differed by 0.5 mM. […] The thereby-obtained solutions were further diluted in measuring buffer (1:100) as 10× stock serial dilutions with a DMSO concentration of 1%. 10 μL of a 10× stock was added into each well at step 3.3.(4) of Protocol 2. Thus, the final concentrations of antagonists ranged from 1000-0.977 nM containing 0.1% DMSO (FIG. 3B). […] (3) The cells were washed twice with 150 μL of measuring buffer (mentioned in 2.2.(3) of Protocol 2, no probenecid). The wells were subsequently refilled with 70 μL of measuring buffer. (4) Either 10 μL of measuring buffer or 10 μL of 10× stock serial dilution of test compound (described in 3.2. above) were applied to each well. Usually, only one test compound was tested per 96-well plate. The number of replicates per 96-well plate for a particular antagonist at a particular concentration was 7×2 since two different sulfuric acid concentrations were used per 96-well plate (N=7×2)(FIG. 3). Step (5) was the same as 2.2.(4) above. (6) Fura-2 fluorescent intensity was monitored as described in 2.2.(5) above. […] Steps (7) and (8) were as described in 2.2.(6) and 2.2.(7) above, respectively. […] FIG. 3) were measured one by one using a portable pH meter.

[2] = Measurement of Body Temperature Increase; assay type: in vivo; conditions: Crl/SD rats, oral, 1 mg/mL in 0.5% methylcellulose at 10 mL/kg; rectal temperature 0.5, 1 and 2 hrs after administration; difference from vehicle group average
Method: Selection of rats (Crl/SD rats, 7 weeks, male) for this study is based on rectal body temperature measured during the morning of the day of dosing. In addition, animals selected for this study are acclimated to both the rectal measurement procedure and to being handled and dosed to minimize spontaneous, stress-induced, increases in body temperature. The study is conducted in the animal care laboratories where the room temperature and humidity are kept. The rats are free to move and food and water during the study. Each rat is numbered with color line on the tail, housed in each cage and permittted the normal range of movement. Immediately before each body temperature is measured, they transferred to a single cage at each measurement. To reduce stress which affected the body temperature, the rats are covered with towels at the measurement. The thermistor probe is then carefully inserted into the rectum of each rat and left in place until the value on the digital display had stabilized.
On the day before dosing, rectal body temperatures are measured at 9:00, 10:00, 11:00, 12:30, 13:30, 14:30 and 15:30 to familiarize the animals with the measurement procedure prior to administration of the test or control treatments. The rats are also dosed by oral gavage without vehicle at 12:30 to acclimate and familiarized the animals with the handling and dosing procedure.
On the day of dosing, only rats whose rectal body temperatures are within the range of 37.0° C. to 37.7° C. are selected for this study. Rectal body temperatures are measured at 9:00, 10:00 and 11:00. Rats whose rectal body temperatures are over 37.9° C. at 10:00, and are outside the range of 37.0° C. to 37.7° C. at 11:00 are excluded from the study. The selected rats are divided to several groups based on their rectal body temperatures at 11:00. Rectal body temperatures of the selected rats are measured again at 12:30, and any rats whose rectal body temperature is 38.0° C. or greater are excluded from the study.
Following the group assignment, test compounds or vehicle is administrated to the rats. Each test compound is dissolved in 0.5% methylcellulose and the final concentration of the compound is adjusted to 1 mg/mL. Test compound is orally administrated in a volume 10 mL/kg once. 10 mL/kg of vehicle (0.5% methylcellulose) is administered to the vehicle group. The rectal body temperatures are measured 0.5, 1 and 2 hrs after the administration. The study is conducted in the animal care laboratories where the room temperature and humidity are kept.
Body temperature increase (ΔTb) is calculated from the difference from an average of the vehicle group at each time point. The body temperature increases (ΔTb) of Compounds I-20, I-25, I-26, I-28, I-29, I-33, I-34, I-36, I-37, I-63 and I-64 were less than 0.3° C.

[3] = biological target: T1, Human TRPV1; experiment: Capsaicin-Based Assay (Protocol 2), TRPV1/CHO cells; assay type: cell-based; conditions: capsaicin 100 nM final
Method: The TRPV1/CHO cell line was generated as described below. […] Subsequently, the cells were loaded by incubation in 0.1 mL of wash buffer containing Fluo-4 at 3 μM final concentration. After 1 hour, the cells were washed twice with 0.2 mL wash buffer and resuspended in 0.1 mL wash buffer. The plates were then transferred to a Fluorescence Imaging Plate Reader (Molecular Devices). Fluorescence intensity was monitored for 15 seconds to establish a baseline. […] The final concentration of the compound was adjusted to range from 100 μM to 1.5625 μM. […] Data were collected over the entire time course and analyzed using Excel and the curve-fitting formula GraphPad Prism.

[4] = Fura-2, read-out: TRPV1 IC50 Potency pH-Based Assay IC50
[5] = Fluo-4, read-out: TRPV1 IC50 Potency Capsaicin-Based Assay IC50
[6] = Fura-2, read-out: IC50 value by the pH-Based Assay
[7] = Fluo-4, read-out: IC50 value by the Capsaicin-Based Assay

T1 sequence (Q8NER1 whole entry): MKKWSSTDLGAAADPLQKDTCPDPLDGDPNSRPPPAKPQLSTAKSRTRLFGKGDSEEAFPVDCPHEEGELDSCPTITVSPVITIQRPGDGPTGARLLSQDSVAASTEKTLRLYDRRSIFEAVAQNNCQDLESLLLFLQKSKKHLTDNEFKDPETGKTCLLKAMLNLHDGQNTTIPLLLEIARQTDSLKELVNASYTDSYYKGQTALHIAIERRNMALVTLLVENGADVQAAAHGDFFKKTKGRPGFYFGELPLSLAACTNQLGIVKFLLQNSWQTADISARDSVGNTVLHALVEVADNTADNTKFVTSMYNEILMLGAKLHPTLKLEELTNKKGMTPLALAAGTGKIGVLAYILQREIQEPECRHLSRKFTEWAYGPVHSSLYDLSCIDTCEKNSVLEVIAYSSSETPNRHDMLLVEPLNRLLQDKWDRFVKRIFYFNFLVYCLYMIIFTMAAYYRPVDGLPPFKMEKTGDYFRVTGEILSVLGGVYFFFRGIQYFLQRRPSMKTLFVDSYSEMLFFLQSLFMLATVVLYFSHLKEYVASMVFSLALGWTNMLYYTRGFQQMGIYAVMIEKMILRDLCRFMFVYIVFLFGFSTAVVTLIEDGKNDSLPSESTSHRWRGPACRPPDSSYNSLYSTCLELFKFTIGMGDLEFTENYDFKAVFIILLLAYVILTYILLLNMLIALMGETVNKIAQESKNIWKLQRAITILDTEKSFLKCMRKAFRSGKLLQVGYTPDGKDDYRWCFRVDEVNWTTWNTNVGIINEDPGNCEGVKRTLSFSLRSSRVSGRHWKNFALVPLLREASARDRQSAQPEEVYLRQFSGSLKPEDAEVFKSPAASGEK

IC50 [3, 5] | IC50 [1, 6] | IC50 [3, 7] | Compound | other results
– | – | – | Cc1nnc(-c2cnc(C3=CCN(C(=O)Nc4ccc(C(C)(C)C)cc4)CC3)c(Cl)c2)o1 [Compound I-7] | IC50 [1, 4]: 0.5 nM
– | – | – | O=C(Nc1ccc(C(F)(F)F)c(Cl)c1)N1CC=C(c2ncc(-c3noc(CO)n3)cc2Cl)CC1 [Compound I-25, N-(3-chloro-4-(trifluoromethyl)phenyl)-4-(3-chloro-5-(5-(hydroxymethyl)-1,2,4-oxadiazol-3-yl)pyridin-2-yl)-5,6-dihydropyridine-1(2H)-carboxamide] | Body temperature increase (ΔTb) [2]: less than 0.3 °C
342 nM | – | – | Cc1cc(-c2ccc(CO)o2)cnc1C1(F)CCN(C(=O)Nc2ccc(C(F)(F)F)c(Cl)c2)CC1 [Compound I-39, N-(3-chloro-4-(trifluoromethyl)phenyl)-4-fluoro-4-(5-(5-(hydroxymethyl)furan-2-yl)-3-methylpyridin-2-yl)piperidine-1-carboxamide] | –
– | ≤ 100 nM | ≤ 100 nM | Cc1cc(-c2nnc(CO)o2)cnc1C1=CCN(C(=O)Nc2ccc(C(F)(F)F)c(Cl)c2)CC1 [Compound I-43, N-(3-chloro-4-(trifluoromethyl)phenyl)-4-(5-(5-(hydroxymethyl)-1,3,4-oxadiazol-2-yl)-3-methylpyridin-2-yl)-5,6-dihydropyridine-1(2H)-carboxamide] | –
– | – | ≤ 100 nM | Cc1cc(NC(=O)N2CC=C(c3ncc(-c4nnc(CO)o4)cc3C)CC2)ccc1C(F)(F)F [Compound I-44, 4-(5-(5-(hydroxymethyl)-1,3,4-oxadiazol-2-yl)-3-methylpyridin-2-yl)-N-(3-methyl-4-(trifluoromethyl)phenyl)-5,6-dihydropyridine-1(2H)-carboxamide] | IC50 [1, 4]: 1 nM
– | – | – | O=C(Nc1ccc(C(F)(F)F)c(Cl)c1)N1CC=C(c2ncc(-c3nnc(CCO)o3)cc2Cl)CC1 [Compound I-50, N-(3-chloro-4-(trifluoromethyl)phenyl)-4-(3-chloro-5-(5-(2-hydroxyethyl)-1,3,4-oxadiazol-2-yl)pyridin-2-yl)-5,6-dihydropyridine-1(2H)-carboxamide] | IC50 [1, 4]: 60.8 nM
– | ≤ 100 nM | ≤ 100 nM | O=C(Nc1ccc(C(F)(F)F)c(Cl)c1)N1CCC(F)(c2ncc(-c3cc(CO)on3)cc2Cl)CC1 [Compound I-52, N-(3-chloro-4-(trifluoromethyl)phenyl)-4-(3-chloro-5-(5-(hydroxymethyl)isoxazol-3-yl)pyridin-2-yl)-4-fluoropiperidine-1-carboxamide] | –
– | ≤ 100 nM | ≤ 100 nM | O=C(Nc1ccc(C(F)(F)F)cn1)N1CCC(F)(c2ncc(-c3cc(CO)on3)cc2Cl)CC1 [Compound I-53, 4-(3-chloro-5-(5-(hydroxymethyl)isoxazol-3-yl)pyridin-2-yl)-4-fluoro-N-(5-(trifluoromethyl)pyridin-2-yl)piperidine-1-carboxamide] | –
– | ≤ 100 nM | ≤ 100 nM | Cc1cc(NC(=O)N2CCC(F)(c3ncc(-c4cc(CO)on4)cc3Cl)CC2)ccc1C(F)(F)F [Compound I-54, 4-(3-chloro-5-(5-(hydroxymethyl)isoxazol-3-yl)pyridin-2-yl)-4-fluoro-N-(3-methyl-4-(trifluoromethyl)phenyl)piperidine-1-carboxamide] | –
16.6 nM | – | – | O=C(Nc1ccc(C(F)(F)F)cn1)N1CCC(F)(c2ncc(-c3nc(CO)no3)cc2Cl)CC1 [Compound I-57, 4-(3-chloro-5-(3-(hydroxymethyl)-1,2,4-oxadiazol-5-yl)pyridin-2-yl)-4-fluoro-N-(5-(trifluoromethyl)pyridin-2-yl)piperidine-1-carboxamide] | –
357 nM | – | – | O=C(NCCNc1ncc(-c2nnc(CO)o2)cc1Cl)Nc1ccc(C(F)(F)F)c(Cl)c1 [Compound I-60, 1-(3-chloro-4-(trifluoromethyl)phenyl)-3-(2-(3-chloro-5-(5-(hydroxymethyl)-1,3,4-oxadiazol-2-yl)pyridin-2-ylamino)ethyl) urea] | –
– | ≤ 100 nM | ≤ 100 nM | O=C(Nc1ccc(C(F)(F)F)c(Cl)c1)C1=CCN(c2ncc(-c3nnc(CO)o3)cc2Cl)CC1 [Compound I-67, N-(3-chloro-4-(thloro-5-(5-(hydroxymethyl)-1,3,4-oxadiazol-2-yl)pyridin-2-yl)-1,2,3,6-terifluoromethyl)phenyl)-1-(3-ctrahydropyridine-4-carboxamide] | –
322 nM | – | – | O=C(Nc1ccc(C(F)(F)F)c(Cl)c1)N1CC=C(c2ncc(N3C[C@@H](O)[C@@H](O)C3=O)cc2Cl)CC1 [Compound I-71, N-(3-chloro-4-(trifluoromethyl)phenyl)-4-(3-chloro-5-((3R,4R)-3,4-dihydroxy-2-oxopyrrolidin-1-yl)pyridin-2-yl)-5,6-dihydropyridine-1(2H)-carboxamide] | –
– | ≤ 100 nM | ≤ 100 nM | O=C(Nc1ccc(C(F)(F)F)c(Cl)c1)N1CC=C(c2ccc(-c3nnc(CO)o3)cc2Cl)CC1 [Compound I-75, 4-(2-chloro-4-(5-(hydroxymethyl)-1,3,4-oxadiazol-2-yl)phenyl)-N-(3-chloro-4-(trifluoromethyl)phenyl)-5,6-dihydropyridine-1(2H)-carboxamide] | –
– | – | ≤ 100 nM | Cc1cc(NC(=O)N2CC=C(c3ccc(-c4nnc(CO)o4)cc3Cl)CC2)ccc1C(F)(F)F [Compound I-76, 4-(2-chloro-4-(5-(hydroxymethyl)-1,3,4-oxadiazol-2-yl)phenyl)-N-(3-methyl-4-(trifluoromethyl)phenyl)-5,6-dihydropyridine-1(2H)-carboxamide] | IC50 [1, 4]: 2.1 nM
38.8 nM | – | – | O=C(Nc1ccc(C(F)(F)F)c(Cl)c1)N1CC=C(c2ncc(Cc3nnc(CO)o3)cc2Cl)CC1 [Compound I-77, N-(3-chloro-4-(trifluoromethyl)phenyl)-4-(3-chloro-5-((5-(hydroxymethyl)-1,3,4-oxadiazol-2-yl)methyl)pyridin-2-yl)-5,6-dihydropyridine-1(2H)-carboxamide] | –
223 nM | – | – | Cc1cc(NC(=O)N2CC=C(c3ncc(Cc4ncco4)cc3Cl)CC2)ccc1C(F)(F)F [Compound I-80, 4-(3-chloro-5-(oxazol-2-ylmethyl)pyridin-2-yl)-N-(3-methyl-4-(trifluoromethyl)phenyl)-5,6-dihydropyridine-1(2H)-carboxamide] | –
– | – | – | O=C(C#Cc1ccc(-c2nnc(CO)o2)cc1Cl)Nc1ccc(C(F)(F)F)c(Cl)c1 [Compound I-81, 3-(2-chloro-4-(5-(hydroxymethyl)-1,3,4-oxadiazol-2-yl)phenyl)-N-(3-chloro-4-(trifluoromethyl)phenyl)propiolamide] | IC50 [1, 4]: 12.8 nM
